Measured values from the NIST ThermoML archive (doi:10.1021/je300775u).

Assay: xn = mol fraction of the nth substance listed
Settings: 101 kPa, Liquid; for speed of sound: Pulse-echo method; for mass density: Vibrating tube method

ClC(Cl)(Cl)Br [bromotrichloromethane] + CCCCCCC
Settings | mass density, 293.15 K [kg/m3] | mass density, 298.15 K [kg/m3] | mass density, 303.15 K [kg/m3] | mass density, 308.15 K [kg/m3] | mass density, 313.15 K [kg/m3] | speed of sound, 293.15 K [m/s] | speed of sound, 298.15 K [m/s] | speed of sound, 303.15 K [m/s] | speed of sound, 308.15 K [m/s] | speed of sound, 313.15 K [m/s]
x1 = 0.0527 | 731.54 | 727.03 | 722.5 | 717.94 | 713.35 | 1126.6 | 1105.8 | 1085.1 | 1064.5 | 1044
x1 = 0.1116 | 786.88 | 782.07 | 777.25 | 772.39 | 767.5 | 1100.3 | 1080.2 | 1060.4 | 1040.5 | 1020.7
x1 = 0.152 | 826.09 | 821.09 | 816.04 | 810.96 | 805.84 | 1083.8 | 1064.4 | 1044.9 | 1025.3 | 1005.8
x1 = 0.2038 | 878.08 | 872.78 | 867.43 | 862.07 | 856.67 | 1064.1 | 1045.2 | 1026 | 1007 | 988.3
x1 = 0.2512 | 927.29 | 921.75 | 916.16 | 910.53 | 904.88 | 1047.4 | 1028.9 | 1010.4 | 992 | 973.6
x1 = 0.2988 | 978.53 | 972.69 | 966.84 | 960.93 | 955.01 | 1031.9 | 1013.7 | 995.8 | 977.7 | 959.8
x1 = 0.3556 | 1041.97 | 1035.81 | 1029.61 | 1023.38 | 1017.12 | 1015 | 997.3 | 979.7 | 962.2 | 944.8
x1 = 0.4027 | 1096.65 | 1090.21 | 1083.75 | 1077.23 | 1070.68 | 1001.9 | 984.7 | 967.5 | 950.4 | 933.3
x1 = 0.4603 | 1166.3 | 1159.5 | 1152.66 | 1145.8 | 1138.9 | 987.5 | 970.6 | 953.9 | 937.2 | 920.7
x1 = 0.4989 | 1214.82 | 1207.8 | 1200.71 | 1193.57 | 1186.41 | 978.4 | 962 | 945.5 | 929.2 | 912.9
x1 = 0.5537 | 1286.16 | 1278.76 | 1271.34 | 1263.88 | 1256.37 | 966.7 | 950.6 | 934.7 | 918.8 | 902.9
x1 = 0.5961 | 1343.68 | 1336 | 1328.29 | 1320.53 | 1312.74 | 958.4 | 942.8 | 927.1 | 911.3 | 895.9
x1 = 0.6562 | 1428.79 | 1420.68 | 1412.54 | 1404.37 | 1396.16 | 948 | 932.8 | 917.4 | 902.2 | 887.1
x1 = 0.7088 | 1506.86 | 1498.38 | 1489.86 | 1481.3 | 1472.71 | 940.1 | 925.2 | 910.3 | 895.4 | 880.6
x1 = 0.7486 | 1568.29 | 1559.53 | 1550.71 | 1541.85 | 1532.96 | 934.8 | 920 | 905.3 | 890.7 | 876.2
x1 = 0.8001 | 1651.09 | 1641.91 | 1632.7 | 1623.44 | 1614.16 | 929 | 914.5 | 900.1 | 885.8 | 871.5
x1 = 0.8456 | 1727.53 | 1717.98 | 1708.38 | 1698.77 | 1689.12 | 924.6 | 910.4 | 896.2 | 882.2 | 868.2
x1 = 0.899 | 1821.57 | 1811.56 | 1801.52 | 1791.47 | 1781.35 | 920.6 | 906.7 | 892.8 | 879 | 865.3
x1 = 0.9521 | 1919.55 | 1909.09 | 1898.58 | 1888.06 | 1877.49 | 918 | 904.4 | 890.7 | 877.2 | 863.7
x1 = 1 | 2013.06 | 2002.14 | 1991.2 | 1980.24 | 1969.25 | 917.1 | 903.6 | 890.2 | 876.8 | 863.6
